Assay results: PubChem BioAssay AID504561 (Southern Research Specialized Biocontainment Screening …, 2011)

Test system: HeLa-CD4-LTR-beta-gal/HL2/3 cell fusion, beta-gal luminescence
Experiment: HIV-1 entry blockers, X4 Env-mediated fusion – HL2/3 with HeLa-CD4 reporter cells, 2% serum, set 2, dose response (AID 504561)

Structure (SMILES) | IC50 [µM]
COc1ccc(Cn2c(O)cc3nn(-c4nc5ccccc5s4)c(=O)c-3c2C)cc1 | 7.91
Cc1c2c(=O)n(-c3nc4ccccc4s3)nc-2cc(O)n1Cc1ccccc1Cl | 5.42
Cc1c2c(=O)n(-c3nc4ccccc4s3)nc-2cc(O)n1Cc1ccc(F)cc1 | 3.9
Cc1c2c(=O)n(-c3nc4ccccc4s3)nc-2cc(O)n1Cc1ccncc1 | 9.59
COc1ccc(CCn2c(O)cc3nn(-c4nc5ccccc5s4)c(=O)c-3c2C)cc1 | 6.94
Cc1c2c(=O)n(-c3nc4ccccc4s3)nc-2cc(O)n1CCc1cccs1 | 7.14
Cc1c2c(=O)n(-c3nc4ccccc4s3)nc-2cc(O)n1Cc1cccs1 | 4.77
Cc1c2c(=O)n(-c3nc4ccccc4s3)nc-2cc(O)n1CCc1ccc(O)cc1 | 9.72
Cc1c2c(=O)n(-c3nc4ccccc4s3)nc-2cc(O)n1CCC(C)C | 5.2
COc1ccccc1Cn1c(O)cc2nn(-c3nc4ccccc4s3)c(=O)c-2c1C | 4.55
Cc1c2c(=O)n(-c3nc4ccccc4s3)nc-2cc(O)n1Cc1cccnc1 | 5.71
Cc1c2c(=O)n(-c3nc4ccccc4s3)nc-2cc(O)n1C1CC1 | 3.56
Cc1c2c(=O)n(-c3nc4ccccc4s3)nc-2cc(O)n1Cc1ccccc1 | 27.4
